{
  "source": "paper PMC7616177",
  "about": "“From structure to clinic: Design of a muscarinic M1 receptor agonist with the potential to treat Alzheimer’s disease” (Cell, 2021)",
  "key": {"[1]": {"target": "T1, human M1 receptor (Homo sapiens, UniProt P11229)", "T1 construct": "expressed in transfected cells", "T1 sequence (P11229 1-460)": "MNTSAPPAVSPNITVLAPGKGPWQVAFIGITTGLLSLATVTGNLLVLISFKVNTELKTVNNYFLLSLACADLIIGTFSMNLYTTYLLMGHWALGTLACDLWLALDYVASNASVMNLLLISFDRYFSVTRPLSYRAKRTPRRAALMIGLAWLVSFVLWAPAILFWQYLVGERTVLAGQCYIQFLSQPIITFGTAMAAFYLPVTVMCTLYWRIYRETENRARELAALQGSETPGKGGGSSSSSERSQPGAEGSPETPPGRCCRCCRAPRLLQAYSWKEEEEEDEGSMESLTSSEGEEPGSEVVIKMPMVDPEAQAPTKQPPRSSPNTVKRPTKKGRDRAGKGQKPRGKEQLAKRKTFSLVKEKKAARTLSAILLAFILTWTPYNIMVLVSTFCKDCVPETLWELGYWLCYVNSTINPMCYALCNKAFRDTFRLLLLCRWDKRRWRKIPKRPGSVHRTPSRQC", "test": "M1-receptor functional agonist assays (pERK1/2 and calcium mobilisation) for hits and SAR", "format": "cell-based"}, "[2]": {"target": "T2, M4-receptor (Homo sapiens, UniProt P08173)", "T2 sequence (P08173 1-479)": "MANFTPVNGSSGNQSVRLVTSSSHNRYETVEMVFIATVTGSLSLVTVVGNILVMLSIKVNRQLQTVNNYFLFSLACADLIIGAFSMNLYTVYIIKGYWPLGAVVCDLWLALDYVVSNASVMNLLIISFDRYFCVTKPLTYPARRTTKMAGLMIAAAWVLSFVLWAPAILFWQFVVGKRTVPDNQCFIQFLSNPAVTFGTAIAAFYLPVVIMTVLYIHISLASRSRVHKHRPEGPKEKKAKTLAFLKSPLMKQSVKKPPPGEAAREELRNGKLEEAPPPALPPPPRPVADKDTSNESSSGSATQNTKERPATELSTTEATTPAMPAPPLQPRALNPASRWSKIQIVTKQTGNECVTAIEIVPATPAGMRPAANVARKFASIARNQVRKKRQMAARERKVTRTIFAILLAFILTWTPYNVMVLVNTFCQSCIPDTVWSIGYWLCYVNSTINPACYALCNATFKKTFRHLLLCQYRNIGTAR", "test": "M4-receptor functional agonist assay", "format": "cell-based", "parameters": "expressed in transfected cells", "details": "for EC50: read-out: M4-receptor EC50", "procedure": "(§1) Functional assays were performed using the Alphascreen Surefire phopho-ERK1/2 assay. […] Once adhered, cells were serum starved overnight. Agonist stimulation was performed by the addition of […] agonist to the cells for a pre-optimized 5 min period (37°C). Media was removed and 50 μl of lysis buffer added. After 15 min a 4 μl sample was transferred to a 384-well plate and 7 μl of detection mixture added."}, "[3]": {"target": "T3, M3-receptor (Homo sapiens, UniProt P20309)", "T3 construct": "expressed in transfected cells", "T3 sequence (P20309 whole entry)": "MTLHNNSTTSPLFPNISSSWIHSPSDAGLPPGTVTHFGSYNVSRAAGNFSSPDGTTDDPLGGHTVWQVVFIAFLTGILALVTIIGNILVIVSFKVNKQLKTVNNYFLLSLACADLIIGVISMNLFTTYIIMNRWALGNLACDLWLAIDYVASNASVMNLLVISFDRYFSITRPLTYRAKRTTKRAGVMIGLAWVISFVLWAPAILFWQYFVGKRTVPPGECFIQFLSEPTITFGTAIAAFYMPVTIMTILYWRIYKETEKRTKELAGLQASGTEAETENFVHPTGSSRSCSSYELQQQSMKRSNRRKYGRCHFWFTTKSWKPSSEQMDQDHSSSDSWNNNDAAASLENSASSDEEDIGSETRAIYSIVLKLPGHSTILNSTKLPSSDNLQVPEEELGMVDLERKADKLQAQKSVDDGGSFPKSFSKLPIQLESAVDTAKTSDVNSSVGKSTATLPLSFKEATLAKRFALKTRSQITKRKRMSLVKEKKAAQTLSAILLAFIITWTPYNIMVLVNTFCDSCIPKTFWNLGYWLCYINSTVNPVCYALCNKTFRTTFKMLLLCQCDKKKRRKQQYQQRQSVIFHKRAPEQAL", "test": "M3-receptor functional agonist assay", "format": "cell-based", "procedure": "as §1"}, "[4]": {"target": "T4, M2-receptor (Homo sapiens, UniProt P08172)", "T4 sequence (P08172 1-466)": "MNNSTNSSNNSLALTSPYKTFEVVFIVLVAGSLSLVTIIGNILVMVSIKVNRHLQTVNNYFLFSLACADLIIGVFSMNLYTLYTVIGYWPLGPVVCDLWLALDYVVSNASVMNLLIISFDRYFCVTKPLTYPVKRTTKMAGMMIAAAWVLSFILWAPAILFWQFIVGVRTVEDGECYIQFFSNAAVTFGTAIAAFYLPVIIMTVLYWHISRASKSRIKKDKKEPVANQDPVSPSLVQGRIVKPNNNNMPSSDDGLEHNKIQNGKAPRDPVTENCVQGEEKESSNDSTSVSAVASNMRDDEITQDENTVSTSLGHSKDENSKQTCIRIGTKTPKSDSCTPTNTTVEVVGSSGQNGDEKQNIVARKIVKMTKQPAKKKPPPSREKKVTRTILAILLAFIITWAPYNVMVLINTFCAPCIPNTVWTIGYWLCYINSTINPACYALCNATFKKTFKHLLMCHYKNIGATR", "test": "M2-receptor functional agonist assay", "format": "cell-based", "parameters": "expressed in transfected cells", "procedure": "as §1"}, "[5]": {"tested_on": "Wistar rats", "test": "Scopolamine-induced amnesia in passive avoidance", "format": "in vivo, rat", "details": "rat passive avoidance, donepezil 0.01 mg/kg", "procedure": "Male adult Wistar rats (Harlan, UK; approximately 11 weeks of age) were acclimatised to the experimental rooms for three days (study days 1-3) and handled for a further two days (study days 4 and 5) prior to the experiment.\nDonepezil (0.01 and 0.1 mg/kg) was administered via intraperitoneal injection (in saline) 60 min prior to training. Rats were trained in a single-trial, step-through, light-dark passive avoidance paradigm. The training apparatus consisted of a chamber 300 mm in length, 260 mm wide, and 270 mm in height. The front and top were transparent, allowing the experimenter to observe the behavior of the animal inside the apparatus. The chamber was divided into two compartments, separated by a central shutter that contained a small opening (50 mm wide and 75 mm high) set close to the front of the chamber. The smaller of the compartments measured 90 mm in width and contained a low-light (~200 lux) illumination source. The larger compartment measured 210 mm in width and was not illuminated. The floor of this dark compartment consisted of a grid of 16 horizontal stainless-steel bars that were 5 mm in diameter and spaced 12.5 mm apart. A current generator supplied 0.75 mA to the grid floor, which was scrambled once every 0.5 s across the 16 bars.\nAnimals were placed facing the rear of the light compartment of the apparatus, immediately after which, spontaneous behavior was assessed. The timer was started once the animal completely turned to face the front of the chamber. Latency to enter the dark chamber was recorded, and having completely entered the dark compartment foot shock was administered to the animal, which immediately returned to the light compartment. Animals were then returned to their home cages. Between each training session, both compartments of the chamber were cleaned to remove any confounding olfactory cues. Vehicle (saline) or scopolamine (1 mg/kg) was administered to rats 6 hours after training. Recall of the inhibitory stimulus was evaluated 24 hour post-training on study day 7, by returning the animal into the light chamber and recording their latency to enter the dark chamber, a criterion time of 600 s was employed. Observation of the animals was made by overhead video camera linked to a monitor behind a screened area. Animal treatment was blinded to the observer."}, "[6]": {"details": "SAR, Table S4, read-out: M1-receptor agonist activity EC50"}},
  "note": "Where two headings read alike, the source gives them in different places.",
  "data": [
    {"smiles": "CCOC(=O)N1CCC[C@@H](N2CCC(C(=O)NC3(C)CCC3)CC2)CC1", "note": "[(R)-Compound 7]", "values": [
      {"measurement": "EC50", "setting": "[1]; [6]", "value": 398, "unit": "nM"},
      {"measurement": "EC50", "setting": "[2]", "value": 2500, "unit": "nM"},
      {"measurement": "EC50", "setting": "[3]; read-out: M3-receptor EC50", "value": "> 20000", "unit": "nM"},
      {"measurement": "EC50", "setting": "[4]; read-out: M2-receptor EC50", "value": "> 20000", "unit": "nM"}
    ]},
    {"smiles": "CCOC(=O)N1CCC(N2CCC(C(N)=O)CC2)CC1", "note": "[Compound 4]", "values": [
      {"measurement": "EC50", "setting": "[1]; fragment hit, read-out: EC50 at the M1-receptor", "value": 3500, "unit": "nM"}
    ]},
    {"smiles": "CCOC(=O)N1CCC(N2CCC(C(=O)NCC(C)C)CC2)CC1", "note": "[Compound 5]", "values": [
      {"measurement": "EC50", "setting": "[1]; [6]", "value": 316, "unit": "nM"},
      {"measurement": "M4-receptor agonist activity", "setting": "[2]", "value": "weak"},
      {"measurement": "M2-receptor agonist activity", "setting": "[4]", "value": "weak"}
    ]},
    {"smiles": "CCOC(=O)N1CCCC(N2CCC(C(=O)NCC(C)C)CC2)CC1", "note": "(stereo not drawn) [Compound 6]", "values": [
      {"measurement": "EC50", "setting": "[1]; calcium assays, read-out: Potency at the M1-receptor in calcium assays EC50", "value": 79, "unit": "nM"},
      {"measurement": "Lower potency at M4-receptors relative to M1", "setting": "[2]; M4 vs M1", "value": "ten-fold"},
      {"measurement": "EC50", "setting": "[2]", "value": 794, "unit": "nM"},
      {"measurement": "M3-receptor agonist activity", "setting": "[3]", "value": "no detectable agonist activity"},
      {"measurement": "M2-receptor agonist activity", "setting": "[4]", "value": "no detectable agonist activity"}
    ]},
    {"smiles": "Cc1cc(F)c2[nH]c(=O)n(C3CCN(C4CCOCC4)CC3)c2c1", "note": "[GSK1034702, reference compound]", "values": [
      {"measurement": "M2-receptor agonist activity", "setting": "[4]", "value": "significant M2-receptor agonist activity"}
    ]},
    {"smiles": "COc1cc2c(cc1OC)C(=O)C(CC1CCN(Cc3ccccc3)CC1)C2", "note": "(stereo not drawn) [donepezil, reference compound]", "values": [
      {"measurement": "Response alone", "setting": "[5]", "value": "inactive"}
    ]}
  ]
}
